Results: US12116371B2, “Substituted pyridines as irreversible inhibitors of menin-MLL interaction” (BIOMEA FUSION, INC., priority 2018, dated 2024)
Read-outs that look alike come from different tables or passages of the source.

Legend:
KG-1 cells = assay: Long term proliferation assay, Cell Titer-Glo read-out; format: cell-based; settings: for IC50: Homo sapiens
Experimental: (§1) Compounds of invention are tested in the 5 suspension lines by 14-day long-term proliferation assay.
(§2) The compound is tested in 10-pt dose titration (client will determine the starting concentration and the dilution scheme) and the final DMSO concentration is kept at 0.2%.
(§3) On Day 0, in a flat bottom 96-well plate, add 100 μL of cells per well at the densities optimized. Prepare compounds in DMSO at 500× final concentration. Dilute the compounds with DMSO at the dilution. Dilute the compounds in media at 3× final concentration. Add 50 μL of compound or DMSO at 3× final concentration to each well. Final volume in each well is 150 μL, and final concentration of DMSO is 0.2%. Also include 3 untreated control wells, by adding 50 μL of media alone. Incubate plates for 96 hours.
(§4) To do this take the total viable cell count calculated using step: • 1. Take the average of the replicates for each dose in order to be used in splitting the cells. • 2. Use a 96 well V-bottom plate to spin down the cells to remove old media and compound to split the cells. • 3. Based on the split ratio place the proper amount of media and cells into the V-bottom plate, and spin the plate at 1100 rpm for 5 minutes. • 4. Following the spin remove the media, careful not to disturb the cell pellet. Re-suspend pellet in 100 μL fresh media, and add to a new 96-well flat bottom plate. • 5. Add fresh compound, in the same manner as Step 3). • 6. Incubate plates for 72 hours. Repeat steps 5)-10) on Day 7. • 7. Incubate plates for 96 hours. Repeat Step 5)-10) on Day 11. • 8. Incubate 72 hours and repeat step 5) to take a final count. • 9. Data Analysis
(§5) To calculate growth for days 4, 7, 11, and 14: • 1. Calculate the split factor for day 4 to 7, day 7 to 11, and day 11-14. The split factor is the viable cells/mL on Day X (either 4, 7 or 11) divided by the density the cells are being split back to. • 2. For growth of cells from day 4 to 7, multiply the day 7 viable cells/mL density by the split factor from day 4. • 3. For growth of cells from day 7 to 11, multiply the day 11 viable cells/mL density by the days 4, and 7 split factors. • 4. For growth of cells from Day 11 to 14, multiply the Day 14 viable cells/mL density by the days 4, 7, and 11 split factors. • 5. Plot growth on semi-log chart (viable cells/mL on Y axis, in log, and days on X axis). • 6. The growth inhibition was calculated with the formula ((untreated cell numbers-treated cell numbers)/untreated cell)). • 7. Calculate the IC50 for each compound in each line using XLFit (Sigmoidal Dose-Response Model, y=(Bottom+((Top-Bottom)/(1+((IC50/×)^Hill))))).

OCI-AML-3 cells = assay: as above; format: cell-based; settings: for IC50: Homo sapiens; for % max: OCI-AML3
Experimental: as §1, §2, §3, §4, §5

MOLM-13 cells = assay: Long term proliferation assay, InCell read-out; format: cell-based, human; settings: for IC50: Homo sapiens
Experimental: as §1, §2, §3, §4, §5

MV4-11 cells = assay: Long term proliferation assay, InCell read-out; format: cell-based, human; settings: for IC50: Homo sapiens
Experimental: as §1, §2, §3, §4, §5

SK-LU-1 cells = assay: Proliferation assay, cells in adhesion; format: cell-based; settings: for IC50: Homo sapiens
SK-LU-1/AMG510 cells = assay: Proliferation assay, cells in adhesion; format: cell-based; settings: for IC50: Homo sapiens

IC50 (OCI-AML-3 cells; OCI-AML-3, 96 h, OCI-AML-3, Day 4, Cell Titer-Glo, read-out: Day 4 IC50): 190 nM | IC50 (OCI-AML-3 cells; OCI-AML-3, 168 h, OCI-AML-3, Day 7, Cell Titer-Glo, read-out: Day 7 IC50): 140 nM | IC50 (OCI-AML-3 cells; OCI-AML-3, 264 h, OCI-AML-3, Day 11, Cell Titer-Glo, read-out: Day 11 IC50): 100 nM | IC50 (OCI-AML-3 cells; OCI-AML-3, 336 h, OCI-AML-3, Day 14, Cell Titer-Glo, read-out: Day 14 IC50): 120 nM | IC50 (OCI-AML-3 cells; OCI-AML-3, OCI-AML3, T4, CellTiter-Glo, read-out: IC50): 190 nM | IC50 (OCI-AML-3 cells; OCI-AML-3, OCI-AML3, T4, CellTiter-Glo, read-out: pIC50 (converted)): 191 nM | IC50 (OCI-AML-3 cells; OCI-AML-3, OCI-AML3, T11, CellTiter-Glo, read-out: IC50): 100 nM | IC50 (OCI-AML-3 cells; OCI-AML-3, OCI-AML3, T11, CellTiter-Glo, read-out: pIC50 (converted)): 100 nM | IC50 (MOLM-13 cells; MOLM-13, 96 h, MOLM-13, Day 4, read-out: Day 4 IC50): 80 nM | IC50 (MOLM-13 cells; MOLM-13, 264 h, MOLM-13, Day 11, read-out: Day 11 IC50): 90 nM | IC50 (MOLM-13 cells; MOLM-13, MOLM-13, T4, read-out: IC50): 80 nM | IC50 (MOLM-13 cells; MOLM-13, MOLM-13, T4, read-out: pIC50 (converted)): 77.6 nM | IC50 (MOLM-13 cells; MOLM-13, MOLM-13, T11, read-out: IC50): 90 nM | IC50 (MOLM-13 cells; MOLM-13, MOLM-13, T11, read-out: pIC50 (converted)): 91.2 nM | IC50 (MV4-11 cells; MV4-11, 96 h, MV4-11, Day 4, read-out: Day 4 IC50): 170 nM | IC50 (MV4-11 cells; MV4-11, 264 h, MV4-11, Day 11, read-out: Day 11 IC50): 170 nM | IC50 (MV4-11 cells; MV4-11, MV4-11, T4, read-out: IC50): 170 nM | IC50 (MV4-11 cells; MV4-11, MV4-11, T4, read-out: pIC50 (converted)): 174 nM | IC50 (MV4-11 cells; MV4-11, MV4-11, T11, read-out: IC50): 170 nM | IC50 (MV4-11 cells; MV4-11, MV4-11, T11, read-out: pIC50 (converted)): 174 nM | IC50 (SK-LU-1 cells; SK-LU-1, SK-LU-1, T4, read-out: IC50): 680 nM | IC50 (SK-LU-1 cells; SK-LU-1, SK-LU-1, T7, read-out: IC50): 590 nM | IC50 (SK-LU-1 cells; SK-LU-1, SK-LU-1, T7, read-out: pIC50 (converted)): 589 nM | IC50 (SK-LU-1 cells; SK-LU-1, SK-LU-1, T11, read-out: IC50): 370 nM | IC50 (SK-LU-1 cells; SK-LU-1, SK-LU-1, T11, read-out: pIC50 (converted)): 372 nM | IC50 (SK-LU-1/AMG510 cells; SK-LU-1, SK-LU-1/AMG510, T4, read-out: IC50): 720 nM | IC50 (SK-LU-1/AMG510 cells; SK-LU-1, SK-LU-1/AMG510, T7, read-out: IC50): 450 nM | IC50 (SK-LU-1/AMG510 cells; SK-LU-1, SK-LU-1/AMG510, T7, read-out: pIC50 (converted)): 447 nM | IC50 (SK-LU-1/AMG510 cells; SK-LU-1/AMG510, T11, read-out: IC50): 390 nM | IC50 (SK-LU-1/AMG510 cells; SK-LU-1/AMG510, T11, read-out: pIC50 (converted)): 389 nM
Structure (SMILES): C=CC(=O)NC1CCCN(Cc2ccnc(C(=O)Nc3ccc(-c4cc5c(N6CCOCC6)ncnc5[nH]4)cc3)c2)C1 (stereo not shown) [Compound 10]
IC50 (KG-1 cells; 96 h, Day 4, Cell Titer-Glo, read-out: Day 4 IC50): 470 nM | IC50 (KG-1 cells; 168 h, Day 7, Cell Titer-Glo, read-out: Day 7 IC50): 330 nM | IC50 (KG-1 cells; 264 h, Day 11, Cell Titer-Glo, read-out: Day 11 IC50): 270 nM | IC50 (KG-1 cells; 336 h, Day 14, Cell Titer-Glo, read-out: Day 14 IC50): 240 nM | IC50 (KG-1 cells; T4, CellTiter-Glo, read-out: IC50): 470 nM | IC50 (KG-1 cells; T4, CellTiter-Glo, read-out: pIC50 (converted)): 468 nM | IC50 (KG-1 cells; T11, CellTiter-Glo, read-out: IC50): 270 nM | IC50 (KG-1 cells; T11, CellTiter-Glo, read-out: pIC50 (converted)): 269 nM | % max (KG-1 cells; T4, CellTiter-Glo): 99% | % max (KG-1 cells; T11, CellTiter-Glo): 99% | % max (OCI-AML-3 cells; T4, CellTiter-Glo): 99% | % max (OCI-AML-3 cells; T11, CellTiter-Glo): 99% | % max (MOLM-13 cells; MOLM-13, T4): 98% | % max (MOLM-13 cells; MOLM-13, T11): 98% | % max (MV4-11 cells; MV4-11, T4): 90% | % max (MV4-11 cells; MV4-11, T11): 90% | % max (SK-LU-1 cells; SK-LU-1, T4): 82% | % max (SK-LU-1 cells; SK-LU-1, T7): 95% | % max (SK-LU-1 cells; SK-LU-1, T11): 96% | % max (SK-LU-1/AMG510 cells; SK-LU-1/AMG510, T4): 83% | % max (SK-LU-1/AMG510 cells; SK-LU-1/AMG510, T7): 95% | % max (SK-LU-1/AMG510 cells; SK-LU-1/AMG510, T11): 98%
